# Laboratory results: ChEMBL document CHEMBL1153993, “Exploring a pocket for polycycloaliphatic groups in the CXCR3 receptor with the aid of a modular synthetic strategy” (Bioorg Med Chem Lett, 2009)
# Molecular target: T1, C-X-C chemokine receptor type 3 (Homo sapiens, UniProt P49682)
# T1 sequence (P49682 whole entry): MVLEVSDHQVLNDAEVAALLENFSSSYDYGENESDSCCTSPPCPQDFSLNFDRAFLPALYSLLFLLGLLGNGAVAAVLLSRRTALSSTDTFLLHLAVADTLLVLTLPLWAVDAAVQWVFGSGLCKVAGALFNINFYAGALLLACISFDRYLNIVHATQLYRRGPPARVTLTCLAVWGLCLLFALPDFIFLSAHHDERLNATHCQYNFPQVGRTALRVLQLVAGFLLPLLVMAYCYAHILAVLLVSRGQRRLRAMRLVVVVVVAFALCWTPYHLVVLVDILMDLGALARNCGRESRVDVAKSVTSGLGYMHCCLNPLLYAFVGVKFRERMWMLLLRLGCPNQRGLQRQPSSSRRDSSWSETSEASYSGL
# Test: Displacement of [125I]CXCL10 from human CXCR3 expressed in HEK293T cells
# Assay type: cell-based, HEK-293T
# Settings: not given
row,Ki [nM],SMILES
1,5010,CCOC(=O)C1CN(Cc2ccc(Cl)cc2F)CCC1NC1C2CC3CC(C2)CC1C3 (stereo in doubt; 32)
2,6310,CC1(C)[C@@H]2CC[C@@]1(C)[C@H](NC1CCN(Cc3ccc(N)cc3)CC1)C2 (relative stereo)
3,398,CC1(C)[C@@H]2CC[C@@]1(C)[C@H](NC1CCN(Cc3ccc(Cl)cc3F)CC1)C2 (relative stereo)
4,6310,CC1(C)[C@@H]2CC[C@@]1(C)[C@H](NC1CCN(Cc3ccccc3F)CC1)C2 (relative stereo)
5,1580,COc1ccc(CN2CCC(N[C@@H]3C[C@H]4CC[C@]3(C)C4(C)C)CC2)c(F)c1
6,> 100000,Fc1cc(Cl)ccc1CN1CCC(NCCC(c2ccccc2)c2ccccc2)CC1
7,5010,Fc1cc(Cl)ccc1CN1CCC(NC2CCCCC2)CC1
8,> 10000,Fc1cc(Cl)ccc1CN1CCC(N2CCCC2)CC1
9,3.16,CCNC(=O)c1cnc(N2CCN(C3CCN(Cc4ccc(Cl)cc4)CC3)[C@@H](CC)C2)c(Cl)c1
10,398,Clc1ccc(CN2CCC(NC3C4CC5CC(C4)CC3C5)CC2)cc1 (stereo unspecified)
11,3980,CC1(C)[C@@H]2CC[C@@]1(C)[C@H](NC1CCN(Cc3cc(F)cc(C(F)(F)F)c3)CC1)C2 (relative stereo)
12,1580,Fc1cc(Cl)ccc1CN1CCCN(C2C3CC4CC(C3)CC2C4)CC1 (stereo unspecified)
13,7940,COc1cccc(CN2CCC(N[C@@H]3C[C@H]4CC[C@]3(C)C4(C)C)CC2)c1 (relative stereo)
14,794,CC1(C)[C@@H]2CC[C@@]1(C)[C@H](NC1CCN(Cc3ccc(N=[N+]=[N-])cc3)CC1)C2 (relative stereo)
15,3980,c1ccc(CN2CCC(NC3C4CC5CC(C4)CC3C5)CC2)cc1 (stereo unspecified)
16,> 10000,O=C(Nc1ccc(Cl)cc1F)N1CCC(NC2C3CC4CC(C3)CC2C4)CC1 (stereo unspecified)
17,5010,Fc1cc(Cl)ccc1CN1CCC(N2CCc3ccccc3C2)CC1
18,10000,COc1ccccc1CN1CCC(N[C@@H]2C[C@H]3CC[C@]2(C)C3(C)C)CC1 (relative stereo)
19,3980,Fc1cc(Cl)ccc1CN1CCC(NCC2CCCCC2)CC1
20,794,CC1(C)[C@@H]2CC[C@@]1(C)[C@H](NC1CCN(Cc3ccc(OC(F)(F)F)cc3)CC1)C2 (relative stereo)
21,3980,Fc1cc(Cl)ccc1CNC1CCN(C2C3CC4CC(C3)CC2C4)CC1 (stereo unspecified)
22,7940,Fc1cc(Cl)ccc1CN1CCC(NC2C3CC4CC2CN(C4)C3)CC1 (stereo unspecified)
23,501,Fc1cc(Cl)ccc1CN1CCC(NCC23CC4CC(CC(C4)C2)C3)CC1
24,501,CC1(C)[C@@H]2CC[C@@]1(C)[C@H](NC1CCN(Cc3ccc(Cl)cc3)CC1)C2 (relative stereo)
25,2000,CC1(C)C2CC[C@@]1(C)C(CNC1CCN(Cc3ccc(Cl)cc3F)CC1)C2 (mixture of isomers)
26,5010,CC(c1ccc(Cl)cc1F)N1CCC(NC2C3CC4CC(C3)CC2C4)CC1 (stereo unspecified)
27,3980,"CCOC(=O)C1CN(Cc2ccc(Cl)cc2F)CCC1NC1C2CC3CC(C2)CC1C3 (single isomer, unassigned)"

row,Ki [nM],SMILES
1,501,CC12CC3CC(C)(CC(C1)C3NC1CCN(Cc3ccc(Cl)cc3F)CC1)C2 (stereo unspecified)
2,3980,Fc1cc(Cl)ccc1CN1CCC(CNC2C3CC4CC(C3)CC2C4)CC1 (stereo unspecified)
3,1000,Clc1ccc(CN2CCC(NC34CC5CC(CC(C5)C3)C4)CC2)cc1
4,1000,Fc1cc(Cl)ccc1CN1CCC(NCC2C3CC4CC(C3)CC2C4)CC1 (stereo unspecified)
5,1260,CN(C1CCN(Cc2ccc(Cl)cc2F)CC1)[C@H]1C[C@H]2CC[C@]1(C)C2(C)C (relative stereo)
6,501,CC1(C)[C@@H]2CC[C@@]1(C)[C@H](NC1CCN(Cc3c(F)c(F)c(F)c(F)c3F)CC1)C2 (relative stereo)
7,2000,CC1(C)[C@@H]2CC[C@@]1(C)[C@H](NC1CCN(Cc3ccc(F)cc3F)CC1)C2 (relative stereo)
8,3980,CN(C)c1ccc(CN2CCC(N[C@@H]3C[C@H]4CC[C@]3(C)C4(C)C)CC2)cc1 (relative stereo)
9,7940,CC1(C)[C@@H]2CC[C@@]1(C)[C@H](NC1CCN(Cc3ccccn3)CC1)C2 (relative stereo)
10,2510,CN(CC1C2CC3CC(C2)CC1C3)C1CCN(Cc2ccc(Cl)cc2F)CC1 (stereo unspecified)
11,> 10000,CC(=O)Nc1ccc(CN2CCC(N[C@@H]3C[C@H]4CC[C@]3(C)C4(C)C)CC2)cc1 (relative stereo)
12,> 10000,CC1(C)[C@@H]2CC[C@@]1(C)[C@H](NC1CCN(Cc3cccnc3)CC1)C2 (relative stereo)
13,2510,CC1(C)[C@@H]2CC[C@@]1(C)[C@H](NC1CCN(Cc3ccc(F)c(C(F)(F)F)c3)CC1)C2 (relative stereo)
14,1260,CN(C1CCN(Cc2ccc(Cl)cc2F)CC1)C1C2CC3CC(C2)CC1C3 (stereo unspecified)
15,158,Fc1cc(Cl)ccc1CN1CCC(NC2C3CC4CC(C3)CC2C4)CC1 (stereo unspecified)
16,1580,CN(C1CCN(Cc2ccc(Cl)cc2F)CC1)[C@@H]1C[C@H]2CC[C@]1(C)C2(C)C (relative stereo)
17,2510,CC1(C)[C@@H]2CC[C@@]1(C)[C@H](NC1CCN(Cc3ccccc3)CC1)C2 (relative stereo)
18,398,CC1(C)[C@@H]2CC[C@@]1(C)[C@@H](NC1CCN(Cc3ccc(Cl)cc3F)CC1)C2 (relative stereo; 60)
19,631,CC1(C)[C@@H]2CC[C@@]1(C)[C@@H](NC1CCN(Cc3ccc(Cl)cc3F)CC1)C2 (relative stereo; 62)
20,6310,CC1(C)[C@@H]2CC[C@@]1(C)[C@H](NC1CCN(Cc3ccco3)CC1)C2 (relative stereo)
21,3980,CC1(C)C2CC=C(CNC3CCN(Cc4ccc(Cl)cc4F)CC3)C1C2 (stereo unspecified)
22,2000,COc1ccc(CN2CCC(N[C@@H]3C[C@H]4CC[C@]3(C)C4(C)C)CC2)cc1 (relative stereo)
23,5010,CCOC(=O)C1=C(NC2C3CC4CC(C3)CC2C4)CCN(Cc2ccc(Cl)cc2F)C1 (stereo unspecified)
24,2510,Fc1cc(Cl)ccc1CN1CCC(NC/C2=C/CCCCCC2)CC1
25,2000,Fc1cc(Cl)ccc1CN1CCCC(NC2C3CC4CC(C3)CC2C4)C1 (stereo unspecified)
26,3160,COC(=O)c1ccc(CN2CCC(N[C@@H]3C[C@H]4CC[C@]3(C)C4(C)C)CC2)cc1

row,SMILES,Ki [nM]
1,CN1C2CCC1CC(NC1CCN(Cc3ccc(Cl)cc3F)CC1)C2 (mixture of isomers),> 10000

# Molecular target: T2, C-X-C chemokine receptor type 3 (Homo sapiens) (UniProt P49682)
# T2 sequence (whole entry): T1 sequence (P49682 whole entry)
# Test: Antagonist activity at human CXCR3 expressed in HEK293T cells coexpressing Galphaqi5 assessed as inhibition of CXCL10-induced [3H]inositol phosphate levels by liquid scintillation counting
# Assay type: functional, cell-based
# Settings: HEK-293T
row,pKb,SMILES
1,5.7,CC1(C)[C@@H]2CC[C@@]1(C)[C@H](NC1CCN(Cc3ccc(Cl)cc3F)CC1)C2 (relative stereo)
2,6.1,Fc1cc(Cl)ccc1CN1CCC(NC2C3CC4CC(C3)CC2C4)CC1 (stereo unspecified)
